The values that follow come from US11628186B2, “Method and composition for the reduction of viral replication, duration and spread of the COVID-19 and the flu” (priority 2017, dated 2023).

Series [1] deals with patients with lung diseases including COPD. The series can be described thus: Comparison of inhaled salts of pyruvate, 5 ml of 0.5 mM solution (Table I). The conditions noted are these: for Increased in FEV-1% lung function: 5 ml of 0.5 mM solution in physiological saline; for Overall Rating 1-10: 1 most negative, 10 best; for FEV1: 5 mls of a 0.5 mM pyruvate inhalation solution in COPD and asthmatic patients. The procedure: All previous studies using pyruvate to treat Allergic Rhinitis, Asthmatic and COPD patients used only the sodium salt form of pyruvic acid in saline. The drug products that were tested in the six Phase I/II clinical trial were differing concentrations of sodium pyruvate dissolved in 0.9% sodium chloride solution (Saline). These drug products contained 0.5 mM, 1.5 mM, or 5.0 mM of sodium pyruvate in physiological saline. They were administered to normal volunteers and COPD and asthmatics by inhalation therapy. […] Various sodium pyruvate solutions were evaluated in the lungs for their ability to enhance FEV1 values and reduce coughing, and lung tightness.
The amount of the salts delivered in the 5 ml's of the 0.5 mM pyruvate solutions were compared to the amounts of the salts in 5 ml's of human blood. […] When ethyl pyruvate reacts with oxygen radical like hydrogen peroxide, it is converted to ethane and alcohol and Co2 and acetate. Ethane and alcohol are lung irritants.
This formula can also be made by adding 3% calcium phosphate or dicalcium phosphate to the standard 0.5 mM to 30 mM sodium pyruvate saline solution see Table I.

For series [2], the system named is patients with sinus & lung diseases including IPF and COPD. The series can be described thus: Salts of pyruvate as 20 mM nasal sprays (Table IX). Conditions: for Overall Rating 1-10: 20 mM (0.22%) nasal spray, 1 most negative, 10 best. The source says:
They never tested the individual salts for their ability to reduce inflammation or increase lung functions.

Series [3] deals with patients with lung diseases including COPD. The series can be described thus: Comparison of inhaled salts of pyruvate, 5 ml of 5 mM solution (Table II). The conditions noted are these: for Increased in FEV-1%: 5 ml of 5 mM solution in saline; for Increased in FEV-1% / Percentage Increase in SaO2 over baseline / Percentage increase of Nitric Oxide over baseline / Relief of congestion, coughing and lung tightness / Irritation: inhaled; for Percentage Increase in SaO2 over baseline / Percentage increase of Nitric Oxide over baseline / Relief of congestion, coughing and lung tightness / Overall Rating 1-10 / Irritation: 5 ml of 5 mM solution; for Overall Rating 1-10: 1 most negative, 10 best.

Series [4] concerns patients with chronic Hypoxemia. As to the kind of experiment: Various drugs with or without pre-inhaled pyruvate formulas (Table VII). The format is in vivo, human. Also noted: SaO2 Measurements taken after medication and compared to baseline / SaO2 Measurements taken after taking the medication and compared to baseline: unit not given here. As to the method:
With the hundreds of patients tested in our various clinical trials, data was gathered as to the type of medications the patients used and the frequency of their use over a six-month period. The patients were asked to rate their medications form 1-10 with 1 being the most irritating with the most side effects and 10 being the best with no irritation and no side effects. In these clinical trials, various drugs were evaluated for irritation, mucus production, and efficacy in humans. The drugs were all evaluated using their current formulations and concentrations against the same formulations with the addition of sodium pyruvate, with the calcium, phosphate and magnesium formula given just prior to the use of their medications. They were instructed to 20 inhale this formula just prior to the use of their medications and to evaluate the effect of their medications on the 1-10 scale.
Patients on the various inhaled medications whether inhaled or taken orally or by IV infusion, were enlisted in the evaluation of the inhaled sodium pyruvate calcium, phosphate and magnesium formula. The patients were tested for their SaO2 levels and those that had SaO2 levels below 92% were asked to enlist in the study. […] After the SaO2 levels were determined prior to and one hour after taking their medications, the patients returned the following day, SaO2 measurements were taken one hour prior to taking their medications. The patients were then handed the hypotonic inhalation formula of sodium pyruvate with calcium, phosphate magnesium formula and instructed to inhale it one hour before taking their medications, SaO2 measurements were then taken one hour after taking their medications.

[5] abbreviates: 5 ml of 0.5 mM solution, inhaled.
Setting [6] is: 5 mls of a 0.5 mM inhalation solution.
The mark [7] stands for this setting: 20 mM (0.22%) nasal spray in 0.9% sodium chloride.

As to aluminum pyruvate, the “Increased in FEV-1% lung function” value in series [1] (inhaled) was determined as 0%. Besides, in series [1] (setting [5]), the “Percentage Increase in SaO2 over baseline” value (from here on “Percentage Increase in SaO2”) is “No”; the “Percentage decrease or increase of Nitric Oxide over baseline” value (“Percentage decrease or increase” for short) is “+8.0%”; the “Relief of congestion, coughing and lung tightness” value (“Relief of congestion” below) came to 1. Further, the “Overall Rating 1-10” value in series [1] (5 ml of 0.5 mM solution) is 3. Besides, the “reduction of nitric oxide” value in series [1] (setting [6]) is reported as “did not reduce nitric oxide”. Also, in series [2] (setting [7]), the “Increased in FEV-1%” value is listed as 0.0%; the “Percentage Increase in SaO2” value is listed as “No”; the “Percentage increase of Nitric Oxide over baseline” value amounted to 00.0%; the “Relief of congestion” value is recorded as 1. Moreover, in series [2], the “Overall Rating 1-10” value is 1. For the same molecule, in series [3], the “Increased in FEV-1%” value stood at 0%; the “Percentage Increase in SaO2” value is “No”; the “Percentage increase of Nitric Oxide over baseline” value is given as 15.0%; the “Relief of congestion” value is recorded as 1. For the same molecule, in series [3], the “Overall Rating 1-10” value is given as 4.

On to zinc pyruvate, for which the “Increased in FEV-1% lung function” value in series [1] (inhaled) is on record as 8.0%. Moreover, in series [1] (setting [5]), the Irritation entry is on record as “Yes”; the “Percentage Increase in SaO2” value is “No”; the “Percentage decrease or increase” value is “+10%”; the “Relief of congestion” value is given as 4. The “Overall Rating 1-10” value in series [1] (5 ml of 0.5 mM solution) amounted to 4. In series [1] (setting [6]), the “increased nitric oxide levels” value is 10% and the “reduction of nitric oxide” value was “did not reduce nitric oxide”. For the same molecule, the “Irritation” value in series [1] (inhaled into the lungs) is reported as “irritating”. In addition, the “Overall Rating 1-10” value in series [2] is recorded as 3. Also, in series [2] (in vivo), the “Increased in FEV-1%” value stood at 1.0%, the Irritation entry is on record as “Yes”, the “Percentage Increase in SaO2” value is “No” and the “Percentage increase of Nitric Oxide over baseline” value was 2.0%. Further, the “Relief of congestion” value in series [2] (in vivo) came out at 4. For the same molecule, in series [3], the “Increased in FEV-1%” value stood at 1.0%, the Irritation entry is “Yes”, the “Percentage Increase in SaO2” value is given as “No” and the “Percentage increase of Nitric Oxide over baseline” value is recorded as 22.0%. Also, in series [3], the “Relief of congestion” value came to 4; the “Overall Rating 1-10” value stood at 3.

Take `CC(=O)N[C@@H](CS)C(=O)O` [N-acetylcysteine, reference compound]: in series [1] (inhaled), the “Increased in FEV-1% lung function” value turned out to be 6%. For the same molecule, in series [1] (setting [5]), the Irritation result is “None”; the “Percentage Increase in SaO2” value amounted to 0%; the “Percentage decrease or increase” value is 0%; the “Relief of congestion” value is 8. In series [1] (5 ml of 0.5 mM solution), the “Overall Rating 1-10” value worked out at 7. In addition, the “SaO2 Measurements taken after medication and compared to baseline” value in series [4] (Drug in commercial formula taken in prescribed way) is listed as “+1”. Besides, the “SaO2 measurements taken after taking medication and compared to baseline” value in series [4] (Drug in commercial formula with Pre-inhaled sodium pyruvate, calcium & phosphate & magnesium) is reported as “+4”. For the same molecule, the “SaO2 Measurements taken after taking the medication and compared to baseline” value in series [4] (Drug in commercial formula with pre-inhaled sodium pyruvate saline only) is 0. The “Lung functions (rating 1-10)” value in series [4] (Drugs commercial formula given as instructed in the package) was determined as 4. Further, the “Lung functions (rating 1-10)” value in series [4] (Drugs in commercial formula Pre-inhaled sodium pyruvate & calcium & phosphate & magnesium) is recorded as 8. The “Lung functions (rating 1-10)” value in series [4] (Drugs in commercial formula with pre-inhaled sodium pyruvate in saline only) turned out to be 6. In series [3], the “Increased in FEV-1%” value came to 2%, the Irritation result was “yes”, the “Percentage Increase in SaO2” value stood at 0% and the “Percentage increase of Nitric Oxide over baseline” value is 1%. Moreover, in series [3], the “Relief of congestion” value was 7; the “Overall Rating 1-10” value came out at 7.

With `CC(=O)C(=O)[O-].[K+]` [Potassium, potassium pyruvate], the “Increased in FEV-1% lung function” value in series [1] (inhaled) is given as 8.0%. Further, in series [1] (setting [5]), the Irritation entry was “None”; the “Percentage Increase in SaO2” value is “no”; the “Percentage decrease or increase” value was −14%; the “Relief of congestion” value turned out to be 5. Moreover, the “Overall Rating 1-10” value in series [1] (5 ml of 0.5 mM solution) is recorded as 7. In addition, the “FEV1” value in series [1] is on record as “lower FEV1 results”. Moreover, the “Overall Rating 1-10” value in series [2] is recorded as 6. Further, in series [2] (in vivo), the “Increased in FEV-1%” value is listed as 6.1%, the Irritation entry is listed as “None”, the “Percentage Increase in SaO2” value is “no” and the “Percentage increase of Nitric Oxide over baseline” value stood at 10.0%. In series [2] (in vivo), the “Relief of congestion” value is 5. In series [3], the “Increased in FEV-1%” value came to 2.1%, the Irritation result is listed as “None”, the “Percentage Increase in SaO2” value is “no” and the “Percentage increase of Nitric Oxide over baseline” value was 25.0%. For the same molecule, in series [3], the “Relief of congestion” value amounted to 5; the “Overall Rating 1-10” value was determined as 7.

Take manganese pyruvate: the “Increased in FEV-1% lung function” value in series [1] (inhaled) is 3.0%. Besides, in series [1] (setting [5]), the “Percentage Increase in SaO2” value is reported as “No”; the “Percentage decrease or increase” value was −2.0%; the “Relief of congestion” value is given as 4. In addition, in series [1] (5 ml of 0.5 mM solution), the “Overall Rating 1-10” value was determined as 3. Further, the “reduction of nitric oxide” value in series [1] (setting [6]) is “did not reduce nitric oxide”. In addition, in series [2] (setting [7]), the “Increased in FEV-1%” value came out at 0.0%; the “Percentage Increase in SaO2” value is recorded as “No”; the “Percentage increase of Nitric Oxide over baseline” value is 2.0%; the “Relief of congestion” value turned out to be 4. Also, the “Overall Rating 1-10” value in series [2] came out at 3. In series [3], the “Increased in FEV-1%” value stood at 3.0%; the “Percentage Increase in SaO2” value is reported as “No”; the “Percentage increase of Nitric Oxide over baseline” value is on record as 25.0%; the “Relief of congestion” value is listed as 4. The “Overall Rating 1-10” value in series [3] is given as 3.

For the molecule calcium pyruvate, the “Increased in FEV-1% lung function” value in series [1] (inhaled) stood at 10.0%. In series [1] (setting [5]), the Irritation entry is “None”; the “Percentage Increase in SaO2” value was “no”; the “Percentage decrease or increase” value is recorded as −18%; the “Relief of congestion” value worked out at 5. The “Overall Rating 1-10” value in series [1] (5 ml of 0.5 mM solution) is given as 7. Also, the “FEV1” value in series [1] came out at 10%. Besides, in series [2], the “Overall Rating 1-10” value was found to be 7. Besides, in series [2] (in vivo), the “Increased in FEV-1%” value came to 7.0%, the Irritation result is listed as “None”, the “Percentage Increase in SaO2” value worked out at 1% and the “Percentage increase of Nitric Oxide over baseline” value amounted to 17.0%. For the same molecule, in series [2] (in vivo), the “Relief of congestion” value worked out at 5. In addition, in series [3], the “Increased in FEV-1%” value was determined as 1.0%, the Irritation result is listed as “None”, the “Percentage Increase in SaO2” value is listed as 1% and the “Percentage increase of Nitric Oxide over baseline” value came to 17.0%. Besides, in series [3], the “Relief of congestion” value turned out to be 5; the “Overall Rating 1-10” value came out at 7.

Take `CC(=O)C(=O)O.N` [Ammonium, ammonium pyruvate]: the “Increased in FEV-1% lung function” value in series [1] (inhaled) is 0%. Moreover, in series [1] (setting [5]), the Irritation result was “Yes”; the “Percentage Increase in SaO2” value was “No”; the “Percentage decrease or increase” value is given as “+5.0%”; the “Relief of congestion” value is reported as 1. Besides, the “Overall Rating 1-10” value in series [1] (5 ml of 0.5 mM solution) turned out to be 1. The “reduction of nitric oxide” value in series [1] (setting [6]) is reported as “did not reduce nitric oxide”. Besides, in series [1] (evaluated in the nasal cavities), the “irritation in the nasal cavities compared with the lungs” value is on record as “even more irritating”. Moreover, the “Irritation” value in series [1] (inhaled into the lungs) is reported as “irritating”. Moreover, in series [2] (setting [7]), the “Increased in FEV-1%” value came to 0.0%, the Irritation entry was “Yes”, the “Percentage Increase in SaO2” value is “No” and the “Percentage increase of Nitric Oxide over baseline” value is 00.0%. In series [2] (setting [7]), the “Relief of congestion” value was determined as 1. In addition, the “Overall Rating 1-10” value in series [2] was found to be 1. In addition, in series [3], the “Increased in FEV-1%” value came to 0%, the Irritation entry was “Yes”, the “Percentage Increase in SaO2” value is “No” and the “Percentage increase of Nitric Oxide over baseline” value was 35.0%. In series [3], the “Relief of congestion” value amounted to 1; the “Overall Rating 1-10” value amounted to 1.
